Patent publication US8497278B2, “Imidazo[1,2-a]pyridine compounds” (priority 2008, dated 2013)

tested on: central benzodiazepine receptors; experiment: Central benzodiazepine receptor binding (test of Speth et al.); conditions: 1000 nM of the compound
Method: Compounds of the invention were assessed for their binding to the benzodiazepine receptor by the test of Speth et al. [Life Sci. 24, 351 (1979)] for central benzodiazepine receptors and LeFur et al. [Life Sci. 33, 449 (1983)] for peripheral receptors. The compounds were tested first at 1.0E-09, 1.0E-07 and 1.0E-05 M in single determination. […] The specific ligand binding to the receptor is defined as the difference between the total binding and the nonspecific binding determined in the presence of an excess of unlabelled ligand. In each experiment, the respective reference compound was tested concurrently with the test compounds in order to assess the assay suitability. It was tested at several concentrations (for IC50 value determination), and the data were compared with historical values. The assay was rendered valid if suitability criteria were met.
BZD central binding data for the compounds is provided in Table 3, wherein is provided the percent inhibition of central BZD in the presence of 1000 nM of the compound.

Row | Structure (SMILES) | % Inhibition at 1000 nM for CBZD
1 | Cc1ccc(-c2nc3ccc(C)cn3c2Cn2ccnc2)cc1 [Compound 1, 3-((1H-imidazol-1-yl)methyl)-6-methyl-2-p-tolylimidazo[1,2-a]pyridine] | ++ (percentage of inhibition of central BZD site binding is greater than 80% in the presence of 1000 nM of the compound)
2 | Cc1ccc(-c2nc3ccc(C)cn3c2Cn2cnc(Cl)c2Cl)cc1 [Compound 3, 3-((4,5-Dichloro-1H-imidazol-1-yl)methyl)-6-methyl-2-p-tolylH-imidazo[1,2-a]pyridine] | + (percentage of inhibition of central BZD site binding is greater than 50% but less than 80% in the presence of 1000 nM of the compound)
3 | Cc1ccc(-c2nc3ccc(C)cn3c2Cn2ccnc2C(C)C)cc1 [Compound 5, 3-((2-Isopropyl-1H-imidazol-1-yl)methyl)-6-methyl-2-p-tolylH-imidazo[1,2-a]pyridine] | ++ (percentage of inhibition of central BZD site binding is greater than 80% in the presence of 1000 nM of the compound)
4 | COC(=O)c1ncnn1Cc1c(-c2ccc(C)cc2)nc2ccc(C)cn12 [Compound 10, 2-(6-Methyl-2-p-tolyl-imidazo[1,2-a]pyridin-3-ylmethyl)-2H-[1,2,4]triazole-3-carboxylic acid methyl ester] | ++ (percentage of inhibition of central BZD site binding is greater than 80% in the presence of 1000 nM of the compound)
5 | COC(=O)c1ncn(Cc2c(-c3ccc(C)cc3)nc3ccc(C)cn23)n1 [Compound 11, 1-(6-Methyl-2-p-tolyl-imidazo[1,2-a]pyridin-3-ylmethyl)-1H-[1,2,4]triazole-3-carboxylic acid methyl ester] | ++ (percentage of inhibition of central BZD site binding is greater than 80% in the presence of 1000 nM of the compound)
6 | CCOC(=O)c1nccn1Cc1c(-c2ccc(C)cc2)nc2ccc(C)cn12 [Compound 12, 1-(6-Methyl-2-p-tolyl-imidazo[1,2-a]pyridin-3-ylmethyl)-1H-imidazole-2-carboxylic acid ethyl ester] | ++ (percentage of inhibition of central BZD site binding is greater than 80% in the presence of 1000 nM of the compound)
7 | Cc1ccc(-c2nc3ccc(C)cn3c2Cn2ccnc2-c2ccccc2)cc1 [Compound 13, 6-Methyl-3-((2-phenyl-1H-imidazol-1-yl)methyl)-2-p-tolylH-imidazo[1,2-a]pyridine] | + (percentage of inhibition of central BZD site binding is greater than 50% but less than 80% in the presence of 1000 nM of the compound)
8 | Cc1ccc(-c2nc3ccc(C)cn3c2Cn2c(C)nc3ccccc32)cc1 [Compound 14, 2-Methyl-1-((6-methyl-2-p-tolylH-imidazo[1,2-a]pyridin-3-yl)methyl)-1H-benzo[d]imidazole] | − (percentage of inhibition of central BZD site binding is less than 50% in the presence of 1000 nM of the compound)
9 | Cc1ccc(-c2nc3ccc(C)cn3c2Cn2cnc3ccccc32)cc1 [Compound 16, 1-((6-Methyl-2-p-tolyl-H-imidazo[1,2-a]pyridin-3-yl)methyl)-1H-benzo[d]imidazole] | ++ (percentage of inhibition of central BZD site binding is greater than 80% in the presence of 1000 nM of the compound)
10 | Clc1ccc(-c2nc3ccc(Cl)cn3c2Cn2cncn2)cc1 [Compound 18, 3-((1H-1,2,4-triazol-1-yl)methyl)-6-chloro-2-(4-chlorophenyl)H-imidazo[1,2-a]pyridine] | ++ (percentage of inhibition of central BZD site binding is greater than 80% in the presence of 1000 nM of the compound)
11 | CCOC(=O)c1nccn1Cc1c(-c2ccc(Cl)cc2)nc2ccc(Cl)cn12 [Compound 22, 1-[6-Chloro-2-(4-chloro-phenyl)-imidazo[1,2-a]pyridin-3-ylmethyl]-1H-imidazole-2-carboxylic acid ethyl ester] | ++ (percentage of inhibition of central BZD site binding is greater than 80% in the presence of 1000 nM of the compound)
12 | COC(=O)c1ncnn1Cc1c(-c2ccc(Cl)cc2)nc2ccccn12 [Compound 24, 2-[2-(4-Chloro-phenyl)-imidazo[1,2-a]pyridin-3-ylmethyl]-2H-[1,2,4]triazole-3-carboxylic acid methyl ester] | ++ (percentage of inhibition of central BZD site binding is greater than 80% in the presence of 1000 nM of the compound)
13 | CCOC(=O)c1nccn1Cc1c(-c2ccc(Cl)cc2)nc2ccccn12 [Compound 26, Ethyl 1-((2-(4-chlorophenyl)H-imidazo[1,2-a]pyridin-3-yl)methyl)-1H-imidazole-2-carboxylate] | ++ (percentage of inhibition of central BZD site binding is greater than 80% in the presence of 1000 nM of the compound)
14 | CCOC(=O)c1cc(C)nn1Cc1c(-c2ccc(Cl)cc2)nc2ccccn12 [Compound 28, Ethyl 1-((2-(4-chlorophenyl)imidazo[1,2-a]pyridin-3-yl)methyl)-3-methyl-1H-pyrazole-5-carboxylate] | ++ (percentage of inhibition of central BZD site binding is greater than 80% in the presence of 1000 nM of the compound)
15 | CCOC(=O)c1cc(-c2ccco2)n(Cc2c(-c3ccc(Cl)cc3)nc3ccccn23)n1 [Compound 30, Ethyl 1-((2-(4-chlorophenyl)imidazo[1,2-a]pyridin-3-yl)methyl)-5-(furan-2-yl)-1H-pyrazole-3-carboxylate] | + (percentage of inhibition of central BZD site binding is greater than 50% but less than 80% in the presence of 1000 nM of the compound)
16 | CCOC(=O)c1cc(-c2ccco2)nn1Cc1c(-c2ccc(Cl)cc2)nc2ccccn12 [Compound 31, Ethyl 1-((2-(4-chlorophenyl)imidazo[1,2-a]pyridin-3-yl)methyl)-3-(furan-2-yl)-1H-pyrazole-5-carboxylate] | + (percentage of inhibition of central BZD site binding is greater than 50% but less than 80% in the presence of 1000 nM of the compound)
17 | COC(=O)c1cc2occc2n1Cc1c(-c2ccc(Cl)cc2)nc2ccccn12 [Compound 33, Methyl 4-((2-(4-chlorophenyl)imidazo[1,2-a]pyridin-3-yl)methyl)-4H-furo[3,2-b]pyrrole-5-carboxylate] | ++ (percentage of inhibition of central BZD site binding is greater than 80% in the presence of 1000 nM of the compound)
18 | COC(=O)c1nn(Cc2c(-c3ccc(Cl)cc3)nc3ccccn23)c2ccccc12 [Compound 34, Methyl 1-((2-(4-chlorophenyl)imidazo[1,2-a]pyridin-3-yl)methyl)-1H-indazole-3-carboxylate] | + (percentage of inhibition of central BZD site binding is greater than 50% but less than 80% in the presence of 1000 nM of the compound)
19 | COC(=O)C1Cc2ccccc2N1Cc1c(-c2ccc(Cl)cc2)nc2ccccn12 (centres unmarked) [Compound 35, Methyl 1-((2-(4-chlorophenyl)imidazo[1,2-a]pyridin-3-yl)methyl)indoline-2-carboxylate] | + (percentage of inhibition of central BZD site binding is greater than 50% but less than 80% in the presence of 1000 nM of the compound)
20 | CNC(=O)c1nc2ccccc2n1Cc1c(-c2ccc(Cl)cc2)nc2ccccn12 [Compound 36, 1-((2-(4-chlorophenyl)imidazo[1,2-a]pyridin-3-yl)methyl)-N-methyl-1H-benzo[d]imidazole-2-carboxamide] | + (percentage of inhibition of central BZD site binding is greater than 50% but less than 80% in the presence of 1000 nM of the compound)
21 | CCOC(=O)c1cc2ccccc2n1Cc1c(-c2ccc(Cl)cc2)nc2ccccn12 [Compound 37, Ethyl 1-((2-(4-chlorophenyl)imidazo[1,2-a]pyridin-3-yl)methyl)-1H-indole-2-carboxylate] | − (percentage of inhibition of central BZD site binding is less than 50% in the presence of 1000 nM of the compound)
22 | COC(=O)c1cn(Cc2c(-c3ccc(Cl)cc3)nc3ccccn23)c2ccccc12 [Compound 38, Methyl 1-((2-(4-chlorophenyl)imidazo[1,2-a]pyridin-3-yl)methyl)-1H-indole-3-carboxylate] | ++ (percentage of inhibition of central BZD site binding is greater than 80% in the presence of 1000 nM of the compound)
23 | Clc1ccc(-c2nc3ccccn3c2Cn2cnnn2)cc1 [Compound 41, 3-((1H-tetrazol-1-yl)methyl)-2-(4-chlorophenyl)imidazo[1,2-a]pyridine] | ++ (percentage of inhibition of central BZD site binding is greater than 80% in the presence of 1000 nM of the compound)
24 | COC(=O)c1ncn(Cc2c(-c3ccccc3)nc3ccc(Cl)cn23)n1 [Compound 45, 1-(6-Chloro-2-phenyl-imidazo[1,2-a]pyridin-3-ylmethyl)-1H-[1,2,4]triazole-3-carboxylic acid methyl ester] | + (percentage of inhibition of central BZD site binding is greater than 50% but less than 80% in the presence of 1000 nM of the compound)
25 | Fc1ccc(-c2nc3ccccn3c2Cn2ccnn2)cc1 [Compound 48, 3-((1H-1,2,3-triazol-1-yl)methyl)-2-(4-fluorophenyl)H-imidazo[1,2-a]pyridine] | ++ (percentage of inhibition of central BZD site binding is greater than 80% in the presence of 1000 nM of the compound)
26 | c1ccc(-c2nc3ccccn3c2Cn2ccnn2)cc1 [Compound 50, 3-((1H-1,2,3-triazol-1-yl)methyl)-2-phenylH-imidazo[1,2-a]pyridine] | + (percentage of inhibition of central BZD site binding is greater than 50% but less than 80% in the presence of 1000 nM of the compound)
